Measurements taken from article PMC7759402 (Journal of Analytical Methods in Chemistry, 2020).

Legend:
[1] = test system: pancreatic ductal adenocarcinoma xenograft; conditions: combination therapy of VS-5584 with ERK inhibitor SCH772984; cited from earlier work
[2] = Stability of VS-5584 in rat plasma (QC samples, UPLC-MS/MS); type: in vitro ADME; conditions: for Stability RE (%): n = 3
Description: Quality control (QC) samples were prepared at LLOQ, low, medium, and high concentrations (1.0, 2.0, 200, and 800 ng/mL) separately in the same manner. The IS working solution was prepared in acetonitrile at a concentration of 40 ng/mL.
Stability studies were conducted under a variety of different conditions. The accuracy and precision under the above conditions should be within ±15%.

| Compound | tumor suppression rate [1] [%] | stability of processed samples (in words) ([2]; 4°C in an autosampler for 12 h) | Stability RE (%) ([2]; processed samples, 4°C in autosampler for 12 h, spiked 2.0 ng/mL) | Stability RE (%) ([2]; processed samples, 4°C in autosampler for 12 h, spiked 200 ng/mL) | Stability RE (%) ([2]; processed samples, 4°C in autosampler for 12 h, spiked 800 ng/mL) | Stability RE (%) ([2]; rat plasma, 12 h at room temperature, spiked 2.0 ng/mL) | Stability RE (%) ([2]; rat plasma, 12 h at room temperature, spiked 200 ng/mL) | Stability RE (%) ([2]; rat plasma, 12 h at room temperature, spiked 800 ng/mL) | Stability RE (%) ([2]; rat plasma, 30 days at −25°C, spiked 2.0 ng/mL) | Stability RE (%) ([2]; rat plasma, 30 days at −25°C, spiked 200 ng/mL) | Stability RE (%) ([2]; rat plasma, 30 days at −25°C, spiked 800 ng/mL) | Stability RE (%) ([2]; rat plasma, three freeze–thaw cycles, spiked 2.0 ng/mL) | Stability RE (%) ([2]; rat plasma, three freeze–thaw cycles, spiked 200 ng/mL) | Stability RE (%) ([2]; rat plasma, three freeze–thaw cycles, spiked 800 ng/mL) | stability in rat plasma (in words) ([2]; −25°C for 30 days, room temperature for 12 h, three freeze-thaw cycles) |
| --- | --- | --- | --- | --- | --- | --- | --- | --- | --- | --- | --- | --- | --- | --- | --- |
| O=C(Nc1ccc2[nH]nc(-c3ccncc3)c2c1)[C@@H]1CCN(CC(=O)N2CCN(c3ccc(-c4ncccn4)cc3)CC2)C1 [SCH772984] | 80 | – | – | – | – | – | – | – | – | – | – | – | – | – | – |
| Cc1nc2c(-c3cnc(N)nc3)nc(N3CCOCC3)nc2n1C(C)C [VS-5584] | – | remained intact | −8.7 | 10.4 | 9.9 | −7.0 | 10.7 | 9.2 | 9.4 | −12.2 | −5.7 | −6.5 | −6.5 | 7.4 | stable |
